The source made the active and inactive calls. The rule behind the calls is not given here.
Columns and labels:
Homo sapiens = species on record: Homo sapiens; experiment: Selectivity index, ratio of IC50 for COX1 (unknown origin) to IC50 for COX2 (unknown origin)
[1] = biological target: T1, Prostaglandin G/H synthase 2 (Homo sapiens, UniProt P35354); experiment: Inhibition of COX2 (unknown origin)
T1 sequence (P35354 whole entry): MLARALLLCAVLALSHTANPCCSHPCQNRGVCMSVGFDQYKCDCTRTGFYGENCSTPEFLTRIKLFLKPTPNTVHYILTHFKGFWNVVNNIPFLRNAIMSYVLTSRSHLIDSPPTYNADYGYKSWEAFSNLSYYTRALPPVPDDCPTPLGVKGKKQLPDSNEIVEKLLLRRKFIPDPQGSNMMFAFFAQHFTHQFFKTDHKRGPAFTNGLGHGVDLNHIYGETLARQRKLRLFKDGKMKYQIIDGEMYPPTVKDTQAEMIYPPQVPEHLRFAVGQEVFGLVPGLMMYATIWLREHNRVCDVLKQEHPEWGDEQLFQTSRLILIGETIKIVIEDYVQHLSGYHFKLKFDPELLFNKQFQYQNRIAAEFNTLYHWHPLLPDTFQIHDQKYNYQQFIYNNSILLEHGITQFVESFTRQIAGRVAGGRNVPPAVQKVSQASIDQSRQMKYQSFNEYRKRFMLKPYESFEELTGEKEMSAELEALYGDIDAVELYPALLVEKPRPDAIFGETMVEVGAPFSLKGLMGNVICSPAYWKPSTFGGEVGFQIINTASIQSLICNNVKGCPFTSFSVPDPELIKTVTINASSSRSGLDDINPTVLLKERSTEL

Mus musculus [2] = experiment: Analgesic activity in mouse assessed as reduction in acetic acid-induced abdominal writhing at 100 mg/kg, ip relative to control; type: functional
[3] = biological target: Prostaglandin G/H synthase 1 (Homo sapiens, UniProt P23219); experiment: Inhibition of COX1 (unknown origin); type: single protein
Mus musculus [4] = experiment: Antiinflammatory activity in mouse assessed as reduction in xylene-induced ear edema at 100 mg/kg, ip administered after prior to xylene stimulation and measured after 1 hr relative to control; type: functional
Mus musculus [5] = experiment: Antiinflammatory activity in mouse assessed as xylene-induced ear edema at 100 mg/kg, ip administered prior to xylene stimulation and measured after 1 hr (reference value: 2.05 +/- 0.40 mg); type: functional
Rattus norvegicus = experiment: Antiinflammatory activity against carrageenan-induced paw edema in rat assessed as inhibition of paw edema at 100 mg/kg, ip administered at 1 hr prior to carrageenan challenge and measured after 4 hrs by electronic-onkographic analysis; type: functional; settings: time 5 hrs

Sequence of Prostaglandin G/H synthase 1 (P23219 whole entry): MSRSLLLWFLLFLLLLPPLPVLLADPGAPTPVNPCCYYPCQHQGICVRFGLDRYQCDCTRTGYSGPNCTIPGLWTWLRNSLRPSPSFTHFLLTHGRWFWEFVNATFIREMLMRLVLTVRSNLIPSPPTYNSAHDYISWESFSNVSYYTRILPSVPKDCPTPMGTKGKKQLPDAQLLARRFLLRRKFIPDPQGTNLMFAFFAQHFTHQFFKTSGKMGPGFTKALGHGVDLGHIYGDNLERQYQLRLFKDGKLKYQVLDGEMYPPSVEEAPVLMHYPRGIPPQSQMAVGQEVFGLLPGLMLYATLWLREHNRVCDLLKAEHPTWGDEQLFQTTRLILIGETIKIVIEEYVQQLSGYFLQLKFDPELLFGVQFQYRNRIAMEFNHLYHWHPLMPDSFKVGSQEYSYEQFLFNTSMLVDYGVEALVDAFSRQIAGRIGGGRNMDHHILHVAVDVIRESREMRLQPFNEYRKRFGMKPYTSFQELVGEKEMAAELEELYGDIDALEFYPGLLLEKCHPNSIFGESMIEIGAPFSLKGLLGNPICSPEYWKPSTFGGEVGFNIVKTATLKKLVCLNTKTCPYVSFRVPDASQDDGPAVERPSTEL

Ratio IC50 (Homo sapiens)	IC50 [1] [µM]	IC50 [3] [µM]	SMILES	inhibition in vivo at 100 mg/kg (Mus musculus [2]) [%]	inhibition in vivo at 100 mg/kg (Mus musculus [4]) [%]	Activity (Mus musculus [5]) [mg]	inhibition (Mus musculus [2])	inhibition in vivo at 100 mg/kg (Rattus norvegicus) [%]
7.2	0.77	5.55	Clc1ccc(COc2nc3ccccc3s2)cc1	51.9	82.9	0.35	–	–
–	–	–	Brc1cccc(COc2nc3ccccc3s2)c1	51.9	77.6	0.46	–	–
–	–	–	Fc1ccc(OCCOc2nc3ccccc3s2)cc1	99.9	72.7	0.56	–	–
–	–	–	c1ccc(COc2nc3ccccc3s2)cc1	51.9	68.8	0.64	–	–
–	–	–	Cc1cc(C)cc(COc2nc3ccccc3s2)c1	51.9	0.5	2.04	–	–
–	–	–	N#Cc1ccc(COc2nc3ccccc3s2)cc1	–	12.7	1.79	inactive	–
–	–	–	Brc1ccc(COc2nc3ccccc3s2)cc1	51.9	78	0.45	–	–
–	–	–	Clc1cccc(COc2nc3ccccc3s2)c1	51.9	80	0.41	–	–
–	–	–	Clc1ccc(OCCOc2nc3ccccc3s2)cc1	68.6	66.3	0.69	–	–
–	–	–	COc1ccc2c(c1)c(CC(=O)O)c(C)n2C(=O)c1ccc(Cl)cc1 [INDOMETHACIN]	–	82.4	0.36	–	–
–	–	–	Fc1ccccc1COc1nc2ccccc2s1	51.9	74.6	0.52	–	–
–	–	–	COc1cc(COc2nc3ccccc3s2)cc(OC)c1	51.9	44.4	1.14	–	–
10.4	0.41	4.28	Clc1ccc(OCCOc2nc3ccccc3s2)c(Cl)c1	68.6	85.4	0.3	–	–
–	–	–	Brc1ccccc1COc1nc2ccccc2s1	51.9	75.6	0.5	–	–
–	–	–	FC(F)(F)c1ccc(COc2nc3ccccc3s2)cc1	99.6	12.2	1.8	–	–
14.1	0.36	5.08	Brc1ccc(OCCOc2nc3ccccc3s2)c(Br)c1	68.6	87.3	0.26	–	–
–	–	–	COc1ccc(COc2nc3ccccc3s2)cc1	–	2.43	2	inactive	–
–	–	–	Fc1ccc(OCCOc2nc3ccccc3s2)c(F)c1	68.6	56.1	0.9	–	–
–	–	–	O=[N+]([O-])c1ccc(COc2nc3ccccc3s2)cc1	97	4.39	1.96	–	–
–	–	–	Clc1ccccc1COc1nc2ccccc2s1	–	14.6	1.75	inactive	–
–	–	–	c1ccc(OCCOc2nc3ccccc3s2)cc1	–	7.31	1.9	inactive	–
16.8	0.37	6.2	Fc1ccc(COc2nc3ccccc3s2)cc1	51.9	90.7	0.19	–	–
10.6	0.5	5.32	Brc1ccc(OCCOc2nc3ccccc3s2)cc1	68.6	94.6	0.11	–	–
–	–	–	Cc1ccc(COc2nc3ccccc3s2)cc1	–	1.95	2.01	inactive	–
–	–	–	O=C(c1ccc([N+](=O)[O-])cc1)c1nc2ccc(F)c(Nc3ccccc3[N+](=O)[O-])c2s1	–	–	–	–	78
18.6	0.28	5.22	Fc1cccc(COc2nc3ccccc3s2)c1	51.9	86.8	0.27	–	–
–	–	–	FC(F)(F)c1ccccc1COc1nc2ccccc2s1	–	9.75	2.03	inactive	–
